Test: Human HepG2 cell viability assay in 384 well format
Type: toxicity, cell-based
Set-up: dose 125 nL, time 70.5 hour; concentration not given beside the values
Details: HepG2 cells, read-out: Inhibition

Row | Compound | cytotoxicity at 70.5 h [%]
1 | CCC(=O)N1CCCCC1c1nc(O)c2c(n1)CN(C(C)=O)CC2 (configuration not stated) | -2.47
2 | Cn1cnc(NC(=O)C2CC(=O)N(c3cccc(F)c3)C2)n1 (configuration not stated) | 18.3
3 | COc1ccc2c(c1)CC(C1CCOCC1)N(C(=O)c1cnccn1)C2 (configuration not stated) | 0.645
4 | Cc1cc(C)nc(Nc2cc(C)nc(C3CCN(C(=O)CO)C3)n2)n1 (configuration not stated) | -7.3
5 | CCCC(=O)N1CCCCC1c1nc(N(C)C)ncc1-c1cc(C)no1 (configuration not stated) | -2.48
6 | Cc1nc(-c2ccc(C(=O)O)cc2)cc(C2CCCN(C(C)C)C2)n1 (configuration not stated) | 9.4
7 | O=C(O)c1ccccc1-c1ccc(CN2CCCC(O)C2)cc1 (configuration not stated) | -8.74
8 | Cc1ncncc1C(=O)N1CCCC(Cc2nccs2)C1 (configuration not stated) | -4.31
9 | O=C(c1cccnc1)N1CCCC(Cc2nccs2)C1 (configuration not stated) | -6.74
10 | CC(=O)N1C[C@@H](c2ccsc2)[C@@H]2CN(CC3CCCCC3)CC[C@@H]21 | -5.59
11 | Cc1nc(-c2ccccc2C(=O)O)cc(C2CCN(C(C)C)C2)n1 (configuration not stated) | 10.7
12 | O=C(NC[C@]1(O)CN(Cc2ccc(F)cc2)C[C@H]1O)c1ccccn1 | -6.05
13 | CC(=O)N1C[C@@H](c2ccsc2)[C@@H]2CN(Cc3ccccc3Cl)CC[C@@H]21 | -5.99
14 | COc1cccc(-c2noc(C3CCN(Cc4ccncc4)C3)n2)c1 (configuration not stated) | -3.26
15 | Cc1nccn1-c1nccnc1C1CCN(Cc2ccc(F)cc2)CC1 | 24.1
16 | Cc1cnc(Nc2nccnc2C2CCN(C)CC2)s1 | -19.6
17 | CN1CCc2nc(C3CCN(C(=O)CCC4CCCC4)CC3)ncc2C1 | -16.6
18 | CC(=O)Nc1nc(C2CCN(C(C)=O)CC2)cs1 | -22
19 | CC(=O)N1CCCC(c2ccc(Nc3nc(C)cc(C)n3)cn2)C1 (configuration not stated) | -12

Row | Compound | cytotoxicity at 70.5 h [%]
20 | O=C(c1cccc(F)c1)N1CCOC(c2nc(-c3ncccn3)no2)C1 (configuration not stated) | -5.4
21 | Cc1cc(-c2cnc(NCc3cccnc3)nc2C(C)C)on1 | -25.7
22 | Cc1cc(-c2cnc(NCc3cccnc3)nc2C(C)(C)C)on1 | -18.2
23 | Cc1n[nH]c(C)c1-c1cnc(CC2CCN(C)C2)cn1 (configuration not stated) | -17.7
24 | Cn1nccc1C(=O)N1CCOC(Cc2cccnc2)C1 (configuration not stated) | 16
25 | COCC1CCN(c2cc(C3CN(C)CCO3)nc(C)n2)CC1 (configuration not stated) | 0.671
26 | CC(=O)N1CCCC1c1nccnc1Nc1cccc(C)n1 (configuration not stated) | -16.6
27 | CC(C)C(=O)N1CCCC(c2ncncc2-c2ccncc2)C1 (configuration not stated) | 13.6
28 | Cc1cc(C)cc(-c2cccc(CC3(C(=O)O)CCOCC3)c2)c1 | 43.6
29 | O=C(NCCCN1CCOCC1)Nc1cnc2cc(Cl)ccc2c1O | 9.66
30 | CC(C)C(=O)N1CCC(c2nc(O)cc(-c3ccncc3)n2)CC1 | -15.8
31 | CCOc1ccc(CC(=O)N2CCN(c3nccn3C)CC2)cc1 | -2.2
32 | O=C(Cc1ccc(F)cc1)N1CCN(CC(O)C2CC2)CC1 (configuration not stated) | -1.1
33 | Cc1ncc2c(n1)C1(CCN(C(=O)C(C)C)CC1)OCC2 | -6.13
34 | Fc1cccc(F)c1Cn1c(C2CCCNC2)cc2cccnc21 (configuration not stated) | -5.53
35 | Cc1nc2cc(-c3nccn3C)nn2c(N2CCCC(O)C2)c1C (configuration not stated) | 0.494
36 | COCCn1c(=O)n(C)c(=O)c2ccc(C3CCC(CN)CC3)nc21 (configuration not stated) | -6.32
37 | FC(F)(F)c1nc(C2CCCNC2)no1 (configuration not stated) | -0.742
38 | Cc1nc(Cc2ccc(F)cc2)cc(C2COCCN2)n1 (configuration not stated) | 2.37

Row | Compound | cytotoxicity at 70.5 h [%]
39 | Cc1nc(NC2CCCCC2)cc(C2CCCNC2)n1 (configuration not stated) | 26.4
40 | Cn1ccnc1CNC(=O)c1cnc(C2CCNCC2)cn1 | 28.1
41 | O[C@@H]1CN(Cc2ccc(F)cc2)CC[C@H]1NCc1ccccn1 | 15.4
42 | c1ccc(CNc2cc(C3CCCNC3)ccn2)nc1 (configuration not stated) | 20.2
43 | COc1cccc(Nc2nc(C3CCCNC3)c3sc(C)c(C)n23)c1 (configuration not stated) | -12
44 | COc1cccc(-c2noc(C3CCN(CC4CCCCC4)C3)n2)c1 (configuration not stated) | 18.2
45 | CS(=O)(=O)c1cncnc1C1CCCNC1 (configuration not stated) | -8.78
46 | Cc1ncsc1C(=O)NCCn1nc(C2CCNC2)c2cccnc21 (configuration not stated) | -14.3
47 | COCc1ccc(CN2CCC(O)(Cn3ccc4ncccc43)CC2)o1 | -8.64
48 | Cc1ccc2c(c1)CN(C(=O)c1ccccc1F)C(CN(C)C)CO2 (configuration not stated) | -24.7
49 | CC[C@H](N)Cn1nc(-c2cccs2)oc1=O | -26.2
50 | c1cnc2c(c1)cc(C1CCOCC1)n2CCN1CCOCC1 | -11.3
51 | OC(CN1CCN(Cc2ccc(F)cc2)CC1)C1CC1 (configuration not stated) | -1.06
52 | OC(CN1CCN(Cc2ccc(F)c(F)c2)CC1)C1CC1 (configuration not stated) | 0.728
53 | CN(C)c1cc(C2CCCNC2)ccn1 (configuration not stated) | 4.83
54 | Cc1cccc(-c2noc(C)c2C(=O)NC2CCCOC2)c1 (configuration not stated) | -10.9
55 | Cc1nc2sccn2c1CNC1(c2ccccc2F)CCCC1 | -8.91
56 | CN(C)CCCN(Cc1cnn(C)c1)Cc1ccco1 | -2.57
57 | CCC(CN1CCCC1)NC(=O)C1(c2cccc(F)c2)CC1 (configuration not stated) | -6.19
